Data on one compound can be found in publication PMC10101232, “Population pharmacokinetics of vancomycin in very low birth weight neonates” (Frontiers in Pediatrics, 2023).

Like-named read-outs stand apart in the source and are kept apart here. Some results are limits rather than exact numbers.

For data set [1] the following is noted: cited from earlier work; for risk of nephrotoxicity: adults, ref [30].
Data set [2] in a line: Vancomycin population pharmacokinetic model (one-compartment, Monolix) from serum concentrations in VLBW neonates.
Method: Data were retrieved for VLBW neonates (0–30 days old) who were admitted to the NICU and received vancomycin for proven or suspected MRSA or MRCONS infections. Patients were included if they received vancomycin for more than 48 h and had at least one vancomycin serum trough concentration measurement in a steady state. The collected data included PNA, PMA, weight, Scr, vancomycin dose, frequency and concentrations. […] Subsequent dose adjustments were guided by the vancomycin trough concentrations. In King Saud University Medical City, both vancomycin peak and trough concentrations were obtained for therapeutic drug monitoring. In all other hospitals, the practice was to collect trough concentrations only. Peak samples were collected 1 h after the end of infusions, and trough concentrations were collected 30 min before the next dose in a steady state. Exclusion criteria were: renal failure, receiving hemodialysis, missing dosing information and those sampled before the steady state were excluded.
One hospital used a chemiluminescent microparticle immunoassay with an Architect i4000SR immunoassay analyzer (Abbott), two hospitals used the kinetic interaction of microparticles in solution (KIMS) with a Cobas c system (Roche/Hitachi), and three hospitals used the homogeneous particle-enhanced turbidimetric inhibition immunoassay (PETINIA) with an Alinity c analyzer (Abbott). The assay range for the Architect immunoassay is from 0.5 to 83 µg/ml, the range for the KIMS assay is 4–80 µg/ml, and the range for the PETINIA is 1.4–100 µg/ml. For the Scr assays, four centers used the Jaffe method, and two centers used the enzymatic method.
We split the data randomly into the training (70%) and validation (30%) data sets. […] Pharmacokinetic modeling was performed using the Monolix software (2020R1) with the stochastic approximation expectation maximization algorithm.
First, we developed a structural model for vancomycin. This included testing one- and two-compartment models with linear and nonlinear elimination. For the between-subject variability in pharmacokinetic parameters, we used the following lognormal distribution: pi=p.exp⁡(ηi), where pi is the individual pharmacokinetic estimate for the i^th individual, p is the median value of the pharmacokinetic parameter, and ηi is the standard deviation for the i^th individual with a mean of 0 and variance ω^2. For residual unexplained variability, we tested different statistical models, including the constant, proportional, and combined error models. As different assays were used for vancomycin, we tested having different residual variability models accordingly.
After we developed the base model, we evaluated the effect of covariates on pharmacokinetic parameters. […]
For data set [3] the following is noted: model from 10 VLBW neonates, 10 mg/kg every 8 h, ref Kato et al. [16]; cited from earlier work. The text has this: The most commonly used tertiary dosing references present vancomycin dosing recommendations for neonates considering only one or two of these variables. For example, Micromedex NeoFax recommends dosing based on a combination of PMA and PNA, pediatric and neonatal Lexicomp recommends two different dosing strategies, one based on a combination of PMA and PNA and the other based on a combination of GA and Scr (Table 1). As a result, the daily doses can differ widely by up to 50% between these studies. Studies have reported that the probability of achieving vancomycin therapeutic targets in neonat ... || To date, only two studies with very small sample size have evaluated the optimal vancomycin dosing in VLBW neonates ([16], [17]). Kato et al. ([16]) recommended a vancomycin dose of 10 mg/kg every 8 h as the initial dosage regimen for vancomycin in VLBW neonates. This model predicted vancomycin therapeutic target achievement in 86.7% of neonates. However, they developed their model based on data from only 10 VLBW neonates, and the simulations were not divided into categories according to Scr and PMA. The major difference between our findings and the Kato et al. model is that for most groups, e ...

Consider `CN[C@H](CC(C)C)C(=O)N[C@H]1C(=O)N[C@@H](CC(N)=O)C(=O)N[C@H]2C(=O)N[C@H]3C(=O)N[C@H](C(=O)N[C@H](C(=O)O)c4cc(O)cc(O)c4-c4cc3ccc4O)[C@H](O)c3ccc(c(Cl)c3)Oc3cc2cc(c3O[C@@H]2O[C@H](CO)[C@@H](O)[C@H](O)[C@H]2O[C@H]2C[C@](C)(N)[C@H](O)[C@H](C)O2)Oc2ccc(cc2Cl)[C@H]1O` [vancomycin], for which the “probable vancomycin-related nephrotoxicity, neonates affected” value in data set [1] (VLBW neonates, ref Madigan et al. [41]) is recorded as “two out of 57”. In addition, the risk of nephrotoxicity entry in data set [1] (troughs >20 µg/ml) is listed as “approximately 30%”; in data set [1] (troughs between 15 and 20 µg/ml), “approximately 15%”. In data set [1] (infants, ref Viel-Thériault et al. [42]), the “nephrotoxicity, patients” value is listed as 6%. Further, the “subjects who developed nephrotoxicity” value in data set [1] (neonatal intensive care unit, ref Bhargava et al. [39]) was “three out of 110”. The “AUC0−24 cutoff as a predictor of nephrotoxicity” value in data set [1] (neonates, ref Tang et al. [43]) is over 485 µg·h/mL. The “neonates who developed nephrotoxicity” value in data set [1] (neonates, ref Tang et al. [43]) is listed as “seven out of 182”. In data set [2] (VLBW neonate weighing 0.93 kg, PMA 26 weeks, Scr 0.6 mg/dl), the “typical Cl value” is reported as 0.09 L/h. The “TMA50 (PMA at which CL is 50% of the mature value)” value in data set [2] (final model) came out at 26.3 weeks. In data set [2] (final population PK model, VLBW neonates, training data set N = 162), the “Cl (total body clearance), estimate” value was 0.09 L/h. Further, the “V (volume of distribution), estimate” value in data set [2] (final population PK model, VLBW neonates, training data set N = 162, typical value at 0.93 kg) is reported as 0.81 L. Further, in data set [3], the “predicted vancomycin therapeutic target achievement” value is given as 86.7%.
